SMILES strings stand for the structures. ≈ marks a conversion by molar mass, not a printed value.

The subject of one data set is PC3 cells. Kind of data set: MTT assay, cytotoxic activity. To be noted: MTT, 72 h. Type of data set: cell-based, human. Summed up:
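PC3 cells were grown at 37 °C/5% CO2 and exposed to test compounds. Viability came from MTT reduction, as test absorbance over untreated-control absorbance × 100%.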
(Tetrazolium dyes change colour on reduction, which living cells bring about.)

Data set [1] relates to IL-6 level in HaCaT cells. Kind of data set: Interleukin-6 ELISA. The data set is classed as cell-based, human. To be noted: IC50 concentration, 72 h. On the procedure: (§1) The level of interleukin-6 (IL-6) in PC3 and HaCaT cell lines was measured by commercial human IL-6 ELISA kits Diaclon SAS (Besancon Cedex, France). […] The untreated cells were used as the control. The IL-6 level in a cell culture supernatant was measured using an enzyme-linked immunosorbent assay in accordance with the manufacturer’s instruction. The experiment was repeated three times.
In general terms: ELISA stands for enzyme-linked immunosorbent assay.

The next data set relates to IL-6 level in PC3 cells. Kind of data set: Interleukin-6 ELISA. The data set is classed as cell-based, human. Conditions: PC3, IC50 concentration, 72 h. On the procedure: as §1
In data set [2] the test system is P. aeruginosa ATCC 15442. In words: Bacterial growth curve assay (OD600, 18 h). To be noted: P. aeruginosa. Type of data set: cell-based, Pseudomonas aeruginosa.
Data set [3] relates to S. aureus ATCC 6538. In words: Bacterial growth curve assay (OD600, 18 h). To be noted: S. aureus ATCC 6538, 0.1 μg/mL. The data set is classed as cell-based, Staphylococcus aureus.
The subject of data set [4] is E. coli ATCC 25922 biofilm. In words: Biofilm eradication assay (crystal violet). Type of data set: cell-based, Escherichia coli. To be noted: 4 MIC. Here is the method:
(§2) Three bacterial strains E. coli ATCC 25922, P. aeruginosa ATCC 15442, and S. aureus ATCC 6538 were used to assign biofilm eradication properties of compounds 5, 10, 11, and CP as the reference drug. To quantify the biomass of the bacteria biofilm, the crystal violet method was used with some modifications.[52] The bacteria were incubated to the mid-log phase, diluted to 103 cfu/mL in brain–heart infusion medium, and seeded in a 96-well plate. Bacterial biofilms were formed by overnight incubation at 37 °C with rotation at 140 rpm. After biofilm formation, all wells were washed with PBS to remove nonadherent bacteria cells. […] The biofilms with tested substances were incubated for 20 h at 37 °C with shaking at 140 rpm. The bacterial biofilm was stained with 0.1% (v/v) CV for 10 min. Afterward, the biofilm was rinsed with PBS and dried. To solubilize the adsorbed crystal violet, wells with stained biofilms were incubated in 30% acetic acid. To estimate the total biofilm biomass, optical density (OD) of the resulting solution was measured at 595 nm. Biofilm assays were repeated at least three times on different days, with two technical replicates assessed each time. A minimum eradication concentration (MBEC) was determined as the lowest concentration of compound, which could damage ≥50% of the formed biofilm structure.

Data set [5] concerns S. aureus ATCC 6538 biofilm. In words: Biofilm eradication assay (crystal violet). The data set is classed as cell-based, Staphylococcus aureus. To be noted: 4–2 MIC. Here is the method: as §2
The next data set has as its system S. aureus NCTC 4163. Kind of data set: MIC, twofold microdilution, standard strain. Conditions: Staphylococcus aureus, NCTC4163, 18 h. Type of data set: cell-based.
The test system of another data set is S. aureus ATCC 25923. Kind of data set: MIC, twofold microdilution, standard strain. Type of data set: cell-based. To be noted: Staphylococcus aureus, ATCC25923, 18 h. On the technique in general: In broth dilution the organism is exposed to a series of concentrations in liquid medium.
Data set [6] relates to S. aureus ATCC 6538. Kind of data set: MIC, twofold microdilution, standard strain. Conditions: Staphylococcus aureus, ATCC6538; standard strain, 18 h. The data set is classed as cell-based, Staphylococcus aureus.
The next data set relates to S. aureus ATCC 29213. Kind of data set: MIC, twofold microdilution, standard strain. Type of data set: cell-based. To be noted: Staphylococcus aureus, ATCC29213, 18 h.
For data set [7], the system named is S. epidermidis ATCC 12228. Kind of data set: MIC, twofold microdilution, standard strain. Conditions: Staphylococcus epidermidis, ATCC12228, 18 h. Type of data set: cell-based.
Data set [8] relates to S. epidermidis ATCC 35984. Kind of data set: MIC, twofold microdilution, standard strain. The data set is classed as cell-based. To be noted: Staphylococcus epidermidis, ATCC35984, 18 h.
For data set [9], the system named is P. aeruginosa ATCC 15442. Kind of data set: MIC, twofold microdilution, standard strain. The data set is classed as cell-based, Pseudomonas aeruginosa. Conditions: Pseudomonas aeruginosa, ATCC15442; standard strain, 18 h.
The next data set concerns E. coli ATCC 25922. Kind of data set: MIC, twofold microdilution, standard strain. Type of data set: cell-based, Escherichia coli. Conditions: Escherichia coli, ATCC25922; standard strain, 18 h.
Another data set concerns S. aureus 180. In words: MIC, twofold microdilution, clinical strain. The data set is classed as cell-based. Conditions: Staphylococcus aureus, 18 h.
Another data set has as its system S. aureus 5595. Kind of data set: MIC, twofold microdilution, clinical strain. Type of data set: cell-based. Conditions: Staphylococcus aureus, 18 h.
The subject of the next data set is S. aureus T5595. Kind of data set: MIC, twofold microdilution, clinical strain. Conditions: Staphylococcus aureus, T5595, 18 h. The data set is classed as cell-based, Staphylococcus aureus.
In a further data set the test system is S. aureus T5591. Kind of data set: MIC, twofold microdilution, clinical strain. Type of data set: cell-based, Staphylococcus aureus. Conditions: Staphylococcus aureus, T5591, 18 h.
Another data set concerns S. epidermidis 4341. Kind of data set: MIC, twofold microdilution, clinical strain. Type of data set: cell-based. Conditions: Staphylococcus epidermidis, 18 h.
The next data set relates to S. epidermidis 5253. Kind of data set: MIC, twofold microdilution, clinical strain. The data set is classed as cell-based, Staphylococcus epidermidis. To be noted: Staphylococcus epidermidis, 5253, 18 h.
A further data set has as its system S. epidermidis KR4243/1. In words: MIC, twofold microdilution, clinical strain. Type of data set: cell-based. To be noted: Staphylococcus epidermidis, 18 h.
For a further data set, the system named is S. pasteuri KR 4358. Kind of data set: MIC, twofold microdilution, clinical strain. To be noted: Staphylococcus pasteuri, KR4358, 18 h. The data set is classed as cell-based.
A further data set relates to P. aeruginosa 37. In words: MIC, twofold microdilution, clinical strain. The data set is classed as cell-based. Conditions: Pseudomonas aeruginosa, 18 h.
The subject of a further data set is P. aeruginosa 659. In words: MIC, twofold microdilution, clinical strain. The data set is classed as cell-based. Conditions: Pseudomonas aeruginosa, 18 h.
Another data set has as its system E. coli 951. Kind of data set: MIC, twofold microdilution, clinical strain. Conditions: Escherichia coli, 18 h. The data set is classed as cell-based.
The next data set relates to E. coli 520. Kind of data set: MIC, twofold microdilution, clinical strain. The data set is classed as cell-based. Conditions: Escherichia coli, 18 h.
The test system of a further data set is E. coli 600. Kind of data set: MIC, twofold microdilution, clinical strain. To be noted: Escherichia coli, 600, 18 h. Type of data set: cell-based, Escherichia coli.
A further data set has as its system E. cloacae 8. In words: MIC, twofold microdilution, clinical strain. Conditions: Enterobacter cloacae, 8; clinical strain, 18 h. The data set is classed as cell-based, Escherichia cloacae.
The subject of a further data set is K. pneumoniae 28. Kind of data set: MIC, twofold microdilution, clinical strain. To be noted: Klebsiella pneumoniae, 18 h. Type of data set: cell-based.
A further data set relates to K. pneumoniae 510. In words: MIC, twofold microdilution, clinical strain. To be noted: Klebsiella pneumoniae, 510; clinical strain, 18 h. The data set is classed as cell-based, Klebsiella pneumoniae.
A further data set deals with M. tuberculosis H37Rv. Kind of data set: Tuberculostatic activity, Microplate Alamar Blue Assay (MIC). The data set is classed as cell-based, Mycobacterium tuberculosis. Conditions: Mycobacterium tuberculosis, H37RV; MABA; read-out: MIC M. tuberculosis H37Rv.
In data set [10] the test system is M. tuberculosis Spec. 192. Described as above. Type of data set: cell-based. Conditions: Mycobacterium tuberculosis, MABA, read-out: MIC M. tuberculosis Spec. 192 (sensitive to tuberculostatics).
The test system of a further data set is M. tuberculosis Spec 210. In words: microbe, parasite or virus in culture. Type of data set: cell-based, Mycobacterium tuberculosis. Conditions: M. tuberculosis Spec. 210.
Data set [11] is described as follows: MTT assay, cytotoxic activity. Conditions: human, HaCaT cells (immortal keratinocytes); MTT, 72 h, normal cell line; read-out: IC50 HaCaT. The data set is classed as cell-based. The essentials: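 MTT assay on cells grown at 37 °C/5% CO2. Viability is expressed as relative MTT reduction: test absorbance divided by untreated-control absorbance, ×100%.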
In data set [12] the test system is P. aeruginosa ATCC 15442 and E. coli ATCC 25922. Kind of data set: MIC, standard Gram-negative rods as a panel. Type of data set: cell-based. Conditions: P. aeruginosa ATCC 15442, E. coli ATCC 25922; read-out: MIC against standard Gram-negative rods (range over strains).
The subject of data set [13] is clinical bacterial strains. Kind of data set: MIC, clinical isolates as groups of strains. Type of data set: cell-based. Conditions: S. aureus 180 and 5595.

For `O=C(O)c1cn(C2CC2)c2cc(N3CCNCC3)c(F)cc2c1=O` [CP, ciprofloxacin, reference compound], the half-inhibitory concentration (IC50) in the data set with PC3 cells (Homo sapiens, PC-3, 72 h) is > 100 µM; in the data set with PC3 cells, 100 ± 3.6 µM. Also, the “effect on IL-6 in human keratinocytes” value in [1] is listed as “stimulated human keratinocytes to produce IL-6”. In addition, the “decrease of IL-6 release as compared to the control” value in the data set on IL-6 level in PC3 cells came to 2.4 times. Further, the “lag phase elongated up to” value in the data set on P. aeruginosa ATCC 15442 [2] (0.05 μg/mL) is on record as “up to 14 h”. Also, the “elongation of the exponential phase to” value with P. aeruginosa ATCC 15442 [2] (0.03–0.006 μg/mL) is recorded as 9 h. For the same molecule, in the data set with S. aureus ATCC 6538 [3], the “bacterial growth limited up to” value is on record as “up to 12 h”. Also, the “eradication of the biofilm formed by E. coli” value in [4] is recorded as “approx. 20%”. For the same molecule, the “elimination of the mature biofilm of S. aureus ATCC 6538” value in data set [5] is reported as 19–25%.

`O=C(O)c1cn(C2CC2)c2cc(N3CCN(CCCCC(=O)N4CCN(c5cc6c(cc5F)c(=O)c(C(=O)O)cn6C5CC5)CC4)CC3)c(F)cc2c1=O` [Compound 19, CP–Pentanoyl–CP Dimer] had a melting point of 170.3 to 171.9 °C. In the data set with S. aureus NCTC 4163, this molecule came in with an MIC of 0.4 mg/L (≈ 0.537 µM). This molecule returned an MIC with S. aureus ATCC 25923 of 0.8 mg/L (≈ 1.07 µM). In addition, the minimal inhibitory concentration (MIC) in the data set on S. aureus ATCC 6538 [6] worked out at 0.4 mg/L (≈ 0.537 µM). For the same molecule, in the data set with S. aureus ATCC 29213, it took 0.8 mg/L (≈ 1.07 µM) to inhibit growth (MIC). Moreover, in data set [7], the minimum inhibitory concentration (MIC) was 0.8 mg/L (≈ 1.07 µM). In data set [8], this molecule yielded an MIC of 0.8 mg/L (≈ 1.07 µM). This molecule yielded a minimum inhibitory concentration (MIC) with P. aeruginosa ATCC 15442 [9] of 3.2 mg/L (≈ 4.3 µM). In the data set on E. coli ATCC 25922, this molecule displayed a minimal inhibitory concentration (MIC) of 0.4 mg/L (≈ 0.537 µM). For the same molecule, the MIC against S. aureus 180 is 1.6 mg/L (≈ 2.15 µM). In the data set with S. aureus 5595, this molecule came in with a minimum inhibitory concentration (MIC) of 0.8 mg/L (≈ 1.07 µM). The MIC with S. aureus T5595 turned out to be 1.6 mg/L (≈ 2.15 µM). In addition, the minimal inhibitory concentration (MIC) against S. aureus T5591 came to 0.8 mg/L (≈ 1.07 µM). Also, the MIC against S. epidermidis 4341 was > 25.6 mg/L. Also, the MIC in the data set with S. epidermidis 5253 is > 25.6 mg/L. The molecule also came in with a minimal inhibitory concentration (MIC) against S. epidermidis KR4243/1 of 1.6 mg/L (≈ 2.15 µM). This molecule also yielded an MIC in the data set with S. pasteuri KR 4358 of 1.6 mg/L (≈ 2.15 µM). Also, in the data set with P. aeruginosa 37, the MIC is > 25.6 mg/L. The molecule also showed a minimal inhibitory concentration (MIC) in the data set with P. aeruginosa 659 of 25.6 mg/L (≈ 34.4 µM). Also, in the data set with E. coli 951, the MIC is 25.6 mg/L (≈ 34.4 µM). In the data set on E. coli 520, inhibition of growth (MIC) required 3.2 mg/L (≈ 4.3 µM). This molecule also returned a minimal inhibitory concentration (MIC) with E. coli 600 of 3.2 mg/L (≈ 4.3 µM). This molecule also had a minimum inhibitory concentration (MIC) in the data set on E. cloacae 8 of 3.2 mg/L (≈ 4.3 µM). Also, the MIC against K. pneumoniae 28 is > 25.6 mg/L. In addition, the MIC in the data set with K. pneumoniae 510 was > 25.6 mg/L. In addition, in the data set on M. tuberculosis H37Rv, the MIC was determined as 8 mg/L (≈ 10.7 µM). In addition, in data set [10], the minimum inhibitory concentration (MIC) stood at 8 mg/L (≈ 10.7 µM). In addition, the “fold more effective than the reference tuberculostatics” value with M. tuberculosis Spec 210 is given as 8–32 fold. Also, in the data set with PC3 cells (Homo sapiens, PC-3, 72 h), the IC50 was 71.4 ± 3.2 µM. The IC50 at 72 h in data set [11] stood at 72.9 ± 5.7 µM. Also, in data set [12], the MIC is ≤ 1 mg/L. In addition, the “share of CP inhibitory activity” value in data set [13] is 62.5%.

In general, IC50 refers to the concentration that gives 50% inhibition. As a reminder, the MIC is the least concentration at which growth counts as inhibited. Usually melting point stands for the temperature, or range, at which the solid turns liquid.

The values are drawn from article PMC10233829 (ACS Omega, 2023).
